Experimental data: patent publication US5880258A (dated 1999)
“Also recorded” adds a separate entry of the source. Each block holds one compound with its values, some of them ahead of it. *1 amine or outer side, *2 acyl side, *3 side chain or, on linkers, in order; H or OH if unused. Where a SMILES comes first, the peptide text is derived from it. Where no end group is shown, it is not given here. [ ]: non-standard residue; d: D form. sY = N[C@@H](Cc1ccc(OS(=O)(=O)O)cc1)C(=O)O; Suc = O=C(CCC(=O)[*:2])[*:1]

Columns and labels:
thrombin [1] = molecular target: T1, thrombin (Homo sapiens, UniProt P00734); assay: Inhibitory action against thrombin induced death; type: in vivo, mice; conditions: score 0 normal, 1 loss of roll over reflection, 2 death within 20 minutes
Description: To male mice (20-25 g), in non-anaesthesia, thrombin (15 NIH units/10 g) was administered intravenously, and the anti-thrombin activity of the tested compound was evaluated by observing the disappearance of roll over reflection and death as indexes. All the tested compounds were dissolved in saline and 0.05 ml/10 g were administered intravenously 5 min prior to the thrombin injection.

[2] = Prolongation of bleeding time (tail vein puncture wound); type: in vivo; conditions: wound 5 minutes after administration, male mice
Description: Samples were injected into male mice (20-25 g) via their tail vein under anaesthesia using pentobarbital (40 mg/kg i.p.). A puncture wound was made by inserting a 21G needle (outer diameter 0.85 mm) into the other side of the tail vein 5 minutes after administration of test compounds, and the bleeding time of the wound was measured.
A filter paper was put on the wound with changes every 15 seconds. Bleeding time is defined as the time required until no red spot is observed on the filter paper.

thrombin [3] = molecular target: T1, thrombin; assay: anti-thrombin activity; clotting assay (coagulation time with fibrinogen as substrate); type: biochemical; set-up: 100 μl of human-thrombin prepared at 10 NIH units/ml in aforesaid buffer
Description: Measurement of anti-thrombin activity was done by looking at anti-coagulant activity as an index using fibrinogen as the substrate. That is, the compounds were dossolved in 200 μl of 0.1 mM Tris-HCl buffer (pH7.5) containing 0.1% polyethyleneglycol-6000, 100 μl of human-thrombin prepared at 10 NIH units/ml in aforesaid buffer, were added 200 μl of human-fibrinogen (Sigma) prepared at 6 mg/ml in aforesaid tris-hydrochloride buffer were added, and the coagulation time of the reaction mixtures were measured. For measuring of coagulation times, coagulation time analyzer (Amelung KC10A) was used. Obtained values were converted into units by using a previously prepared thrombin standard curve. Graphs were prepared by plotting the converted values on the vertical axis, and the concentrations of the compounds on the horizontal axis. In the graphs, the thrombin unit was defined as 100 at a compound concentration of 0. The concentration of compounds corresponding to 50 units were defined as 50% inhibitory concentrations of compounds.

α-chymotrypsin = α-chymotrypsin in 0.1M sodium-phoshate buffer (pH7.0); conditions: 37° C., up to 24 hours
[4] = test system: V8 protease (product of Sigma); assay: V8 protease in 0.1M sodium-phoshate buffer (pH7.0); conditions: 37° C., up to 1 hour
[5] = test system: carboxypeptidase Y (product of Boehringer Mannheim); assay: carboxypeptidase Y in 0.1M sodium-phoshate buffer (pH7.0); conditions: 37° C., up to 30 min.

Compound: CC[C@H](C)[C@H](NC(=O)[C@@H]1CCCN1C(=O)[C@H](CCC(=O)O)NC(=O)[C@H](Cc1ccccc1)NC(=O)[C@H](CC(=O)O)NC(=O)CNC(=O)CCC(=O)O)C(=O)N1CCC[C@H]1C(=O)N[C@@H](CCC(=O)O)C(=O)N[C@@H](Cc1ccc(OS(=O)(=O)O)cc1)C(=O)N[C@@H](Cc1ccc(OS(=O)(=O)O)cc1)C(=O)N[C@@H](CC(C)C)C(=O)N[C@@H](CCC(N)=O)C(=O)O [Sulfated form of (C), Suc--Gly--Asp--Phe--Glu--Pro--Ile--Pro--Glu--Tyr(SO3 H)--Tyr(SO3 H)--Leu--Gln--OH] (Suc-GDFEPIPE[sY][sY]LQ-OH)
Score (thrombin [1]; 20 mg/kg i.v. 5 min before thrombin 15 NIH units/10 g): 1.2 | Score (thrombin [1]; 50 mg/kg i.v. 5 min before thrombin 15 NIH units/10 g): 0.8 | Score (thrombin [1]; 100 mg/kg i.v. 5 min before thrombin 15 NIH units/10 g): 0.6 | Bleeding time ([2]; 10 mg/kg via tail vein): 277.5 ± 31.5 s | Bleeding time ([2]; 20 mg/kg via tail vein): 366.0 ± 23.0 s | Bleeding time ([2]; 50 mg/kg via tail vein): 432.0 ± 33.3 s | Potency (thrombin [3]; calculated using the definition that HV-1 (54-65) potency is 1): 88.94 | IC50 (thrombin [3]; concentration corresponding to 50 thrombin units, human-thrombin 10 NIH units/ml, human-fibrinogen 6 mg/ml, read-out: 50% Inhibition Concentration (converted)): 42.9 nM

cleaved bond (α-chymotrypsin): Tyr-Tyr
Compound: GDFEEIPYYYLQ

cleaved bond [4]: Glu-Tyr | cleaved bond [5]: Leu-Gln; also recorded: Tyr(SO3 H)-Leu | not cleaved [5]: no Tyr was released (30 min.)
Compound: Gly--Asp--Phe--Glu--Glu--Ile--Pro--Glu--Tyr--Tyr(SO3 H)--Leu--Gln
